From patent US4556674A, “2-Imino-pyrrolidines, process for their preparation, and therapeutic compositions containing same” (Laboratoires Jacques Logeais, priority 1983, dated 1985)

Columns and labels:
cardiac rhythm = settings: described in DE-A-1770 752; cited from earlier work
Acute Toxicity in Mice = type: in vivo; settings: mouse, in vivo, death rate recorded 9 days after treatment
Experimental: (§1) The compounds were administered orally or intraperitoneally, in the form of a solution in physiological saline (0,9 % NaCl), to male mice of Swiss strain (body weight: 22-25 g). The death rate was recorded 9 days after the treatment. […]

[1] = tested on: aconitine-induced dysrhythmia; experiment: Anti-dysrhythmic activity, aconitine test in rats; type: in vivo, rat
Experimental: The animals are anesthetized with urethane (1 g/kg i.p.); an aconitine sulfate injection (27.5 μg/kg) is made in the pre-catheterized jugular vein, 30 minutes after administration by the same route of one of the test compounds. The time delay before the appearance of the first burst of dysrhythmia is noted on the electrocardiogram (D2 lead recording) and compared with reference animals.

[2] = tested on: collagen-induced blood-platelet aggregation (platelet rich plasma); experiment: Collagen-induced blood-platelet aggregation; type: cell-based, rabbit; settings: for minimal effective concentration: Oryctolagus cuniculus, Platelet, read-out: Collagen-induced blood-platelet aggregation: Threshold concentrations (inhibition of aggregation <50%)
Experimental: Collagen-induced blood-platelet aggregation
Blood samples were taken from the carotid artery in rabbits, using an anticoagulant (sodium citrate at 3.8%, 1 volume per 9 volumes of blood). The platelet rich plasma (PRP) was obtained by slow centrifugation (1200 RPM for 10 mn), and the platelet poor plasma (PPP) by rapid centrifugation (4500 RPM for 15 mn). The PRP samples were placed in the cell of an aggregometer, incubated at 37° C., after which was added thereto Michaelis buffer containing the test compound (0.04 ml), followed by the aggregating agent (collagen: 0.08 ml of collagen suspension previously incubated at 33° C. for 90 seconds). Blood-platelet aggregation is evidenced by the decrease of the optical density of the PRP (Initial O.D. of the PRP: 100%. Initial O.D. of the PPP=0%.)

[3] = tested on: male mice of Swiss strain; experiment: Acute Toxicity in Mice; type: in vivo; settings: result in words
Experimental: as §1

α-adrenolytic activity = α-adrenolytic activity observed in dog after an injection of nor-adrenalin; type: in vivo; settings: result in words
human plasma clots = experiment: Fibrinolytic activity (lysis of human plasma clots); design: Concentration inducing lysis of the clot within 24 hours / Concentration inducing lysis of the clot within 48 hours: unit not given here; settings: for Concentration inducing lysis of the clot within 24 hours / Concentration inducing lysis of the clot within 48 hours: human plasma clot, veronal buffer pH 7.2-7.4, 37° C.
Experimental: The following method was used.
Human plasma clots were prepared by recalcification (one drop of calcium thrombase at 20 U/ml per 0.5 ml of plasma), so that the clot formed around the hook of a glass rod. The clots were then suspended in buffered solutions (veronal buffer pH 7.2-7.4) maintained at 37° C. The eventual lysis of the clot is recorded after 24 hrs and 48 hrs incubation.

[4] = Rattus norvegicus, iv, read-out: Aconitine-induced dysrhythmia, percent animals protected
[5] = rabbit PRP, 37° C., collagen, threshold concentrations

| SMILES | mortality at 216 h (Acute Toxicity in Mice; po, 200 mg/kg p.o.) | mortality at 216 h (Acute Toxicity in Mice; ip, 100 mg/kg i.p.) | minimal effective concentration [2, 5] | Concentration inducing lysis of the clot within 48 hours (human plasma clots) | further results |
| --- | --- | --- | --- | --- | --- |
| COc1ccc(CCN=C2CCCN2C)cc1OC [Compound A, 1-methyl-2-[(3,4-dimethoxy-phenylethyl)imino]pyrrolidine, reference compound] | 0% |  |  |  | action on the cardiac rhythm (cardiac rhythm): decreasing action on the cardiac rhythm; mortality at 216 h (Acute Toxicity in Mice; ip, 200 mg/kg i.p.): 60%; responders at 5 mg/kg [1, 4]: 0%; Collagen-induced blood-platelet aggregation: Threshold concentrations (inhibition of aggregation <50%) [2, 5]: inactive |
| CN1CC(c2ccccc2)CC1=NCCc1ccccc1 (stereo not drawn) [Example 1, 1-Methyl-4-phenyl-2-phenylethylimino-pyrrolidine] | 0% | 80% |  |  | responders at 1 mg/kg [1, 4]: 25% |
| CC(Cc1ccccc1)N=C1CC(c2ccccc2)CN1C (stereo not drawn) [Example 2, 1-Methyl-4-phenyl-2-phenylisopropylimino-pyrrolidine] | 83% | 100% | 10 µg/mL |  | responders at 1 mg/kg [1, 4]: 67% |
| CN1CC(c2ccccc2)CC1=NCCOc1ccccc1 (stereo not drawn) [Example 3, 1-Methyl-4-phenyl-2-(2-phenoxy-ethylimino)pyrrolidine] | 0% |  | 1 to 3 µg/mL |  | mortality at 216 h (Acute Toxicity in Mice; ip, 200 mg/kg i.p.): 0%; toxicity [3]: least toxic in mice; responders at 10 mg/kg [1, 4]: 83%; anti-arrhythmic activity ([1]; result in words): an anti-arrhythmic activity; α-adrenolytic activity (α-adrenolytic activity): an α-adrenolytic activity; Concentration inducing lysis of the clot within 24 hours (human plasma clots): 10-20; fibrinolytic activity (human plasma clots; result in words): a fibrinolytic activity; anti-blood-platelet-aggregation activity ([2]; result in words): possesses an anti-blood-platelet aggregating activity |
| COc1ccc(CCN=C2CC(c3ccccc3)CN2C)cc1OC (stereo not drawn) [Example 4, 1-Methyl-4-phenyl-2-(3',4'-dimethoxy-phenethylimino)pyrrolidine] | 0% |  | 10 to 30 µg/mL |  | mortality at 216 h (Acute Toxicity in Mice; ip, 200 mg/kg i.p.): 100%; responders at 7.5 mg/kg [1, 4]: 90% |
| CCN1CC(c2ccccc2)CC1=NCCc1ccc(OC)c(OC)c1 (stereo not drawn) [Example 5, 1-Ethyl-4-phenyl-2-(3',4'-dimethoxy-phenethylimino)pyrrolidine] | 0% | 20% | 3 to 10 µg/mL |  |  |
| CCCN1CC(c2ccccc2)CC1=NCCOc1ccccc1 (stereo not drawn) [Example 6, 1-n.Propyl-4-phenyl-2-(phenoxyethyl-imino)pyrrolidine] |  |  | 1 to 3 µg/mL | 5-10 |  |
| C=CCN1CC(c2ccccc2)CC1=NCCc1ccc(OC)c(OC)c1 (stereo not drawn) [Example 7, 1-Allyl-4-phenyl-2-(3',4'-dimethoxy-phenethyl-imino)pyrrolidine] |  |  | 10 µg/mL | 10-20 |  |
| CCCN=C1CC(c2cc3ccccc3o2)CN1C (stereo not drawn) [Example 8, 1-Methyl-4-(2-benzofuryl)-2-n.propyl-imino-pyrrolidine] |  |  | 10 to 30 µg/mL | 20 |  |
| C=CCN=C1CC(c2cc3ccccc3o2)CN1C (stereo not drawn) [Example 9, 1-Methyl-4-(2-benzofuryl)-2-allylimino-pyrrolidine] |  | 60% | 3 to 10 µg/mL |  | mortality at 216 h (Acute Toxicity in Mice; po, 100 mg/kg p.o.): 0% |
| C#CCN=C1CC(c2cc3ccccc3o2)CN1C (stereo not drawn) [Example 10, 1-Methyl-4-(2-benzofuryl)-2-propargylimino-pyrrolidine] |  |  | 100 µg/mL |  |  |
| CN1CC(c2cc3ccccc3o2)CC1=NCCO (stereo not drawn) [Example 11] | 0% |  | 10 to 100 µg/mL |  | mortality at 216 h (Acute Toxicity in Mice; ip, 200 mg/kg i.p.): 80% |
| COCCN=C1CC(c2cc3ccccc3o2)CN1C (stereo not drawn) [Example 12, 1-Methyl-4-(2-benzofuryl)-2-(2-methoxy-ethylimino)-pyrrolidine] | 0% | 100% | 3 to 30 µg/mL |  |  |
| CN1CC(c2cc3ccccc3o2)CC1=NCCc1ccccc1 (stereo not drawn) [Example 13, 1-Methyl-4-(2-benzofuryl)-2-phenethylimino-pyrrolidine] | 0% | 100% | 3 to 30 µg/mL | 2.5-5 | responders at 5 mg/kg [1, 4]: 50%; Concentration inducing lysis of the clot within 24 hours (human plasma clots): 10 |
| CC(Cc1ccccc1)N=C1CC(c2cc3ccccc3o2)CN1C (stereo not drawn) [Example 14, 1-Methyl-4-(2-benzofuryl)-2-phenylisopropyl-imino-pyrrolidine] | 0% | 80% | 3 to 10 µg/mL |  | responders at 5 mg/kg [1, 4]: 100% |
| CN1CC(c2cc3ccccc3o2)CC1=NCCOc1ccccc1 (stereo not drawn) [Example 15, 1-Methyl-4-(2-benzofuryl)-2-(2-phenoxy-ethylimino)-pyrrolidine] | 10% | 100% |  |  | responders at 5 mg/kg [1, 4]: 80% |
| COc1ccc(CCN=C2CC(c3cc4ccccc4o3)CN2C)cc1OC (stereo not drawn) [Example 16] | 0% | 100% | 10 to 30 µg/mL |  | responders at 3 mg/kg [1, 4]: 80% |
| CN1CC(COc2ccccc2)CC1=NCCOc1ccccc1 (stereo not drawn) [Example 17, 1-Methyl-4-phenoxymethyl-2-(2-phenoxy-ethylimino)-pyrrolidine] |  |  | 3 µg/mL |  | responders at 10 mg/kg [1, 4]: 100% |
| COc1ccc(CCN=C2CC(COc3ccccc3)CN2C)cc1OC (stereo not drawn) [Example 18, 1-Methyl-4-phenoxymethyl-2-(3',4'-dimethoxy-phenethylimino)pyrrolidine] | 0% | 40% | 10 to 30 µg/mL | 20 | responders at 5 mg/kg [1, 4]: 100% |
| CN1CC(COc2ccc3c(c2)OCO3)CC1=NCCOc1ccccc1 (stereo not drawn) [Example 19, 1-Methyl-4-(3',4'-methylenedioxy-phenoxymethyl)-2-(2-phenoxy-ethylimino)-pyrrolidine] | 0% | 80% | 3 to 10 µg/mL |  | responders at 2.5 mg/kg [1, 4]: 25% |
| COc1ccc(CCN=C2CC(COc3ccc4c(c3)OCO4)CN2C)cc1OC (stereo not drawn) [Example 20, 1-Methyl-4-(3',4'-methylenedioxy-phenoxymethyl)-4-(3',4'-dimethoxy-phenethylimino)pyrrolidine] | 0% | 80% | 10 to 30 µg/mL |  | responders at 10 mg/kg [1, 4]: 100% |
| CCc1ccccc1OCC1CC(=NCCc2ccc(OC)c(OC)c2)N(C)C1 (stereo not drawn) [Example 21, 1-Methyl-4-(2'-ethyl-phenoxymethyl)-2-(3',4'-dimethoxy-phenethylimino)pyrrolidine] | 0% |  | 3 µg/mL | 10-20 | mortality at 216 h (Acute Toxicity in Mice; ip, 33 mg/kg i.p.): 20%; responders at 7.5 mg/kg [1, 4]: 100% |
| CN1CC(COc2ccccc2C#N)CC1=NCCOc1ccccc1 (stereo not drawn) [Example 22, 1-Methyl-4-(2'-cyano-phenoxymethyl)-2-(2-phenoxyethylimino)-pyrrolidine] | 0% |  | 30 µg/mL | 5-10 | mortality at 216 h (Acute Toxicity in Mice; ip, 33 mg/kg i.p.): 40%; Concentration inducing lysis of the clot within 24 hours (human plasma clots): 20 |
